Converted amounts (≈) assume the structure as drawn. Like-named read-outs stand apart in the source and are kept apart here.
Tests used:
DENV-3: SMLC50 = assay: Plaque reduction neutralization test (PRNT), DENV-3; assay type: cell-based, Dengue virus; settings: DENV-3, BHK-21 cells
From the text: (§1) The dengue viruses used in this study were DENV-1:VN/2017/D7709, DENV-2: 00St22A, DENV-3: SMLC50, DENV-4: SLMC318. The virus strains were supplied by the Vietnam National Institute of Hygiene and Epidemiology. The four above serotypes of the Dengue virus were propagated in BHK-21 cell lines (provided by Nagasaki University, Japan) in Eagle’s Minimum Essential Medium (EMEM; Gibco Thermo Fischer Scientific, Waltham, MA, USA) with 2% Fetal Bovine Serum (FBS; Sigma Aldrich, St. Louis, MO, USA) at 37 °C under 5% CO2 atmosphere for 5–7 days. The BHK-21 cells were cultured using 10% FBS EMEM medium.
(§2) EMEM (1 mL) containing FBS (2%) was added into each of 24-well plates (with a concentration of […] –1.0 × 10^4 cells/well). The well plates were shaken to induce the formation of identical cell layers. Afterwards, the wells were incubated at 37 °C under 5% CO2 atmosphere overnight until the cell concentration reached at 70–90%. In case this concentration was not yet reached, the incubation was allowed to continue for a further 1 to 2 days.
(§3) The compounds 4–8 and 23 were totally dissolved in EMEM with a concentration of 500 μg/mL, which was serially diluted with step 2 with EMEM containing 2% FBS; the solutions of compounds were kept at 2–8 °C. The viruses were used at the dose of 2.5 × 10^3 PFU/mL in EMEM containing 2% FBS. The virus (100 μL) was added to all the diluted samples. The virus-compounds mixtures were incubated at 37 °C under 5% CO2 atmosphere for 60 min; afterwards, the medium in all wells of the plates was removed. The virus-compounds mixture (50 μL) was added into the wells, according to the designed experimental test concentration/dilution.
(§4) The viral medium was used as the negative control. EMEM (2 mL) containing methyl cellulose (1%) was added and re-incubated at 37 °C under 5% CO2 atmosphere for 4–6 days. The typical DENV-1 and DENV-4-induced CPE appeared after 4 days of incubation, while the durations for DENV-2 and DENV-3 were 5 and 6 days, respectively. These times of incubation allowed the formation of the plaques to be visually observable and countable. The plaques can be observed under a microscope or by eyes. The cells were fixed with formalin (3.7%) for 1 h at room temperature, washed with water, and stained with crystal violet (0.25%) for 1 h at room temperature. Finally, the plaques were counted.

MDCK cells = assay: Cytotoxicity assay (MTT) in MDCK cells; assay type: cell-based, Canine; settings: 72 h, read-out: CC50 (50% cytotoxic concentration)
Description: (§5) Initially, maximum non-toxic concentrations were determined for compounds 1–22 to exclude their non-specific antiviral activity. The in vitro cytotoxicity of the tested compounds (CC50) was studied in the normal Madin-Darby Canine Kidney cell line (MDCK) by the MTT ((3-(4,5-dimethylthiazol-2-yl)-2,5-diphenyltetrazolium bromide) test. The highest concentration tested was […]. The cytotoxicity of oseltamivir carboxylate and rimantadine was also evaluated as these have been used as reference drugs in antiviral tests. Compounds at concentration that kills no more than 50% of cells (CC50) were used for further investigation of antiviral activity.
(§6) The MDCK cells were seeded onto 96-well culture plates (10^4 cells per well) and incubated at 36 °C in 5% CO2 until continuous monolayer formation. To assess the toxicity of the compounds, a series of their 3-fold dilutions, at concentrations of 300 to 3.7 μg/mL in Eagle’s Minimal Essential Medium (MEM), were prepared. The dilutions were added to the wells of the plates. The cells were incubated for 72 h at 36 °C in a CO2 incubator under 5% CO2. Further, a microtetrazolium (MTT) assay was performed on the 96-well plates. The cells were washed 2 times with saline (0.9% NaCl), and 100 μL/well of MTT solution [3-(4,5-dimethylthiazol-2-yl)-2,5-diphenyltetrazolium bromide] at a concentration of […] in MEM was added. The plates were incubated for 1 h at 36 °C, the liquid was removed, and dimethylsulfoxide (DMSO) (0.1 mL per well) was added. The optical density (OD) of the cells was measured on a Thermo Multiskan FC spectrophotometer (Thermo Fisher Scientific, Waltham, MA, USA) at a wavelength of 540 nm. Based on the obtained data, the CC50, the concentration of the compound that destroys 50% of the cells in the culture, was calculated for each specimen.

[1] = Cytotoxicity assay (MTT) in MDCK cells; assay type: cell-based, Canine; settings: dog, read-out: CC50 (50% cytotoxic concentration)
Description: as §5, §6

DENV-1:VN/2017/D7709 = assay: Plaque reduction neutralization test (PRNT), DENV-1; assay type: cell-based, Dengue virus; settings: DENV-1, BHK-21 cells
From the text: as §1, §2, §3, §4

[2] = test system: influenza virus A/Puerto Rico/8/34 (H1N1); assay: organism not typed; assay type: cell-based; settings: read-out: IC50 (50% inhibitory concentration)
DENV-4: SLMC318 = assay: Plaque reduction neutralization test (PRNT), DENV-4; assay type: cell-based, Dengue virus; settings: DENV-4, BHK-21 cells
From the text: as §1, §2, §3, §4

E. coli = test system: E. coli; design: method as in doi:10.3390/M1078; settings: cited from earlier work
DENV-2: 00St22A = assay: Plaque reduction neutralization test (PRNT), DENV-2; assay type: cell-based, Dengue virus; settings: DENV-2, BHK-21 cells
From the text: as §1, §2, §3, §4

S. aureus = test system: S. aureus; design: method as in doi:10.3390/M1078; settings: cited from earlier work
[3] = Cytotoxic assay (MTT) against BHK-21 cells; assay type: cell-based; settings: hamster, read-out: CC50 (50% cytotoxic concentration)
Description: The cytotoxic evaluation of the extracts was carried out against the BHK-21 cells. Under cultural conditions of EMEM with FBS (10%), the assaying cells were grown in 96-well bottom-transparent plates at a density of 6 × 10^4 cells/mL per well. The compounds that had been dissolved in dimethyl sulfoxide (DMSO) with six different concentrations (500, 250, 125, 62.5, 31.25, 15.625 μg/mL) were added into each well; each concentration was used in triplicate. After incubation at 37 °C under 5% CO2 atmosphere for 48 h, MTT (0.5 mg/mL) was added into each well; afterwards, 4 h incubation was carried out. The liquid in the wells was removed, and DMSO ([…]) was added to each well. The optical absorbance was recorded on a microplate reader at λ = 570 nm (Genious Tecan, Grödig, […]). The optical density in the wells was plotted against the logarithm of compound concentration, and 50% cytotoxic concentration (CC50), the compound concentration decreasing the optical density twice comparing to control wells, was calculated using the appropriate software (Table Curve 2Dv4.USA).

P. aeruginosa = test system: P. aeruginosa; design: method as in doi:10.3390/M1078; settings: cited from earlier work

CC1(C)CC[C@]2(C(=O)NCCNCCN)CC[C@]3(C)C(=CCC4[C@@]5(C)CCC(=O)C(C)(C)C5CC[C@]43C)C2C1 (stereo partly shown) [Compound 5]
PRNT50 DENV-3 (concentration that reduces plaque number by 50%) (DENV-3: SMLC50): inactive | IC50 (DENV-3: SMLC50; Dengue virus, DENV3, read-out: PRNT50 DENV-3 (concentration that reduces plaque number by 50%)): 452 ± 26 µM | CC50 (MDCK cells): 50 ± 4 µM | CC50 at 72 h [1]: 48 µM | PRNT50 DENV-1 (concentration that reduces plaque number by 50%) (DENV-1:VN/2017/D7709): inactive | IC50 (DENV-1:VN/2017/D7709; Dengue virus, DENV1, read-out: PRNT50 DENV-1 (concentration that reduces plaque number by 50%)): 220 ± 14 µM | IC50 ([2]; MDCK, 72 h): 20 to 21 µM | IC50 [2]: > 20 µM | PRNT50 DENV-4 (concentration that reduces plaque number by 50%) (DENV-4: SLMC318): inactive | IC50 (DENV-4: SLMC318; Dengue virus, DENV4, read-out: PRNT50 DENV-4 (concentration that reduces plaque number by 50%)): 433 ± 31 µM | MIC against E. coli (E. coli): 25 µM (≈ 13.5 µg/mL) | PRNT50 DENV-2 (concentration that reduces plaque number by 50%) (DENV-2: 00St22A): inactive | IC50 (DENV-2: 00St22A; Dengue virus, DENV2, read-out: PRNT50 DENV-2 (concentration that reduces plaque number by 50%)): 372 ± 15 µM | MIC against S. aureus (S. aureus): 12.5 µM (≈ 6.75 µg/mL) | CC50 at 48 h [3]: > 463 µM | MIC against P. aeruginosa (P. aeruginosa): 50 µM (≈ 27 µg/mL)

Reference: article PMC9738632 (Molecules, 2022)
